Test [1] concerns Bronchial epithelial cells co-cultured with dermal fibroblast (BF4T system). The experiment in a line: BioMAP BF4T system (TNFα and IL-4). The class given is cell-based, human. Conditions: Homo sapiens, 24 h; 10 uM; procedure of Example 830; read-out: % increase in VCAM-1.
Test [2] deals with Bronchial epithelial cells (BE3C system). The experiment in a line: BioMAP BE3C system (IL-1β, TNFα, IFNγ). As to conditions: Homo sapiens, Epithelial cell, 24 h; 10 uM; procedure of Example 831; read-out: % decrease in MMP-1. Type of test: cell-based, human.
The test system of test [3] is HepG2 cells. The experiment in a line: Glucose uptake (Glucose Uptake-Glo). The class given is cell-based. Conditions: Homo sapiens, 50 uM, read-out: % increase in Glucose Uptake.
The test system of test [4] is Coronary artery smooth muscle cells (CASM3C system). The test is described as follows: BioMAP CASM3C system (IL-1β, TNFα, IFNγ). Type of test: cell-based, human.
Test [5] has as its system Propionic Acidemia (PA) primary fibroblasts GM00371. The test is described as follows: Mitochondrial respiration, XFe96 Extracellular Flux Analyzer (OCR/ECAR), PA fibroblasts GM00371. Type of test: cell-based. As to conditions: Homo sapiens, Fibroblast.
Test [6] deals with Dermal fibroblasts (HDF3CGF system). The test is described as follows: BioMAP HDF3CGF system (IL-1β, TNFα, IFNγ, EGF, bFGF, PDGF-BB). Type of test: cell-based, human. As to conditions: Homo sapiens, Fibroblast, 72 h; 1 uM; read-out: % increase in 72 Hour Proliferation.
Test [7] concerns Peripheral blood mononuclear cells co-cultured with venular endothelial cells (HUVEC) (LPS system). The experiment in a line: BioMAP LPS system. Conditions: procedure of Example 827. The class given is cell-based, human.
Test [8] relates to Peripheral blood mononuclear cells co-cultured with venular endothelial cells (Sag system). The test is described as follows: BioMAP Sag system (T-cell ligands). The class given is cell-based, human. Conditions: 10 uM; procedure of Example 828. As for the experimental part: The BioMAP platform (BioMAP® Diversity PLUS® Panel from Eurofins) is an in vitro phenotypic profiling technology that screened the compounds of the present disclosure (hereafter indicated as test agents) in human primary cell-based systems modelling complex tissue and disease states. The BioMAP assays were performed using the Eurofin's BioMAP Technology Platform as (see references 1 to 13 in the example 824 section) to model different diseases on primary cell-based model systems. These systems consisted of either single primary cell types or co-culture cells. Adherent cell types were cultured or co-cultured in 96 or 384-well plates until confluence followed by the addition of compounds prepared in DMSO at a final concentration of ≤0.1%. In each cell-based system, primary cells from heathy donors (2-6 donors) were pooled and treated with compounds at 1 and 10 μM dose 1h prior to stimulation and remain in culture as indicated in Example 825, Example 826, Example 827, Example 828, Example 829, Example 830, Example 831, Example 832, Example 833, Example 834, Example 835, Example 836 and Example 837. For on the BioMAP® Diversity PLUS® Panel, please see the following references, which are incorporate herein.
Following the general procedure as described in Example 824, Peripheral blood mononuclear cells were co-cultured with venular endothelial cells and treated with soluble antigen (T-cell ligands) (Sag system) in the presence or absence of compounds to model autoimmune and chronic inflammation. Biomarkers read out were; MCP-1, CD38, CD40, E-selectin, CD69, IL-8, MIG, PBMC cytotoxicity, Proliferation and SRB.

The test system of test [9] is Peripheral blood mononuclear cells co-cultured with B-cells (BT system). The experiment in a line: cells. As to conditions: Homo sapiens, 72 h, read-out: % decrease in sIL-17.
Test [10] has as its system Venular Endothelial cells (HUVEC) (4H system). The experiment in a line: BioMAP 4H system (IL-4 and histamine). Type of test: cell-based, human. Conditions: 10 uM; procedure of Example 826.
The subject of test [11] is Leigh Syndrome (LS) primary fibroblasts GM03672. The experiment in a line: NADP+/NADPH (NADP/NADPH-Glo), Leigh fibroblasts GM03672. The class given is cell-based. As to conditions: Homo sapiens, Fibroblast, Leigh GM03672 P8, assay condition B (1 mM glucose, 2 mM L-glutamine, 1 mM pyruvate, 10% FBS), 24h, read-out: Increase in Total NADP+ + NADPH. As for the experimental part:
Primary adherent fibroblasts were cultured in minimum essential medium (MEM) (Gibco, 25030081) supplemented with 2 mM L-Glutamine (Gibco, 25030081), 15% fetal bovine serum (FBS) (Gibco, 26400044) and 1% penicillin/streptomycin (Gibco, 5140122) at 37° C. and 5% CO2. Cells were collected for either passaging or experiment at ˜70-80% confluence. Cells were obtained by trypsinization and seeded in cell culture microplates either white plate (Thermo Fisher Scientific, 152028) for luminescent measurement or black plate (Thermo Fisher Scientific, 165305) for fluorescent based read out for different assays listed below. Cells were obtained by trypsinization and […] were seeded and allowed to adhere for 16-18 hours to have confluency around 70-80% in the cell well with culture media. After 24 hours prior to measurements (37° C., 5% CO2) media was changed to Dulbecco's Modified Eagle Medium (DMEM, Agilent Seahorse cat #103575-100) with the appropriate supplements as stated below.
Primary fibroblasts assayed were Propionic Acidemia (PA) (GM03590 Coriell Institute for Medical Research, Tsi 6337 Trans-Hit Bio), Methylmalonic Acidemia (MMA) (Tsi 5224 Trans-Hit Bio), Subnormal activation of pyruvate dehydrogenase complex (PDH) (GM01503 Coriell Institute for Medical Research), Very long-chain acyl-CoA dehydrogenase (VLCAD) (GM17475), Leigh Syndrome (LS) (GM03672, GM13411 Coriell Institute for Medical Research), Pyruvate Carboxylase Deficiency (PC) (GM00444 Coriell Institute for Medical Research). 10 μM of Compounds were added for 2 hours in PA, MMA lines and for 24h for the other fibroblast lines.
Assay was performed according to manufacturer instructions (NADP+/NADPH-Glo Assay Promega, G9082). Assay required a plate for total measurement of NADP+/NADPH and a plate for individual measurement of NADP+ or NADPH. For every assay a 12-point standard curve is prepared ranging from 400 nM to 0.625 nM. Media is removed and replaced with 50 μl of PBS for both assays.
For individual NADP+/NADPH measurements, 50 μl of 1% DTAB (Sigma, D5047) (cell lysis reagent) in 0.2N NaOH was added to the plates and 100 μl of lysate was split into two plates with 50 μl each from which ratio of NADP/NADPH can be calculated. 25 μl of 0.4N HCl were added to the NADP+ plates and both NADP+ and NADPH plates were heated at 60° C. for 15 minutes. The acid and heat treatment destroyed NADPH allowing individual NADP+ measurements while heating in basic conditions destroys NADP+ allowing individual NADPH measurement. After 15 minutes plates were allowed to come to room temperature and Trizma base (Sigma, T1699) was added to the NADP+ plates to neutralize the acid and HCl Trizma hydrochloride (Sigma, T2694) was added to the NADPH plates. The NADNADPH glo reagent was prepared by adding 125 μl of NAD cycling substrate, 125 μl of reductase, 125 μl of reductase substrate, 125 μl NAD cycling enzyme to a total of the 25 ml of NAD GLO reagent. 1:1 ratio of total volume of reagent was added to the individual NADP+, NADPH measurements (total 100 μl) and 50 μl were added for the total NAD/NADPH measurements. Luminescence was measured for 30-60 minutes within the linear range.
A total dead cell count was performed as described in Example 817 and only alive cells were used for analysis.

Test [12] deals with primary fibroblasts GM00649, GM06225, GM00612, GM00444, GM03672. The experiment in a line: MMP, ROS and ATP multiplex (ArrayScan). Type of test: cell-based. Conditions: Homo sapiens, Fibroblast; Leigh GM03672; procedure Example 838; 50 μM (table line r25); read-out: Decreased ROS by at least 10%. As for the experimental part:
Cell culture and treatments. Primary adherent fibroblasts were cultured in minimum essential medium (MEM) (Gibco, 25030081) supplemented with 2 mM L-Glutamine (Gibco, 25030081), 15% fetal bovine serum (FBS) (Gibco, 26400044) and 1% penicillin/streptomycin (Gibco, 5140122) at 37° C. and 5% CO2. Cells were collected for either passaging or experiment at ˜70-80% confluence. Cells were obtained by trypsinization and seeded at 10000 cells/well in cell culture microplates (Seahorse Bioscience, 101085-004) and allowed to adhere for 16 hours in culture media. After media was refreshed with DMEM (Agilent Seahorse 103575-100) supplemented with 1 mM glucose and 10% FBS (Gibco, 26400044). At the end of the incubation period, the cells were loaded with the relevant dye/antibody for each cell health marker. The assay provided simultaneous measurement of cell health parameters including cell count, ROS formation (DHE), mitochondrial membrane potential (MitoTracker®) and cellular ATP content (CellTiter-Glo®, Promega). The plates were then scanned using an automated fluorescent cellular imager, ArrayScan® (Thermo Scientific Cellomics). Assay conditions were optimized by one skilled in the art.
Primary cells used in this example were obtained from Coriell Institute for Medical Research and consisted of GM00649, MSUD (Maple Syrup Urine Disease) Tyle IA; GM06225, Kearns-Sayre Syndrome; GM00612, MSUD (Maple Syrup Urine Disease) Tyle II GM00444, Pyruvate Carboxylase Deficiency and GM03672, Leigh Syndrome.

In test [13] the test system is primary fibroblasts (healthy controls and PA, MMA, BCKDK, PDH, VLCAD, LS, PC, GA, VLCFA, KSS, FXN, HD). The test is described as follows: Measurement of ROS (H2DCFDA) in primary fibroblasts. As to conditions: Homo sapiens, procedure Example 812, Assay Condition C. Type of test: cell-based, human. In outline: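 Patient and healthy-control primary fibroblasts switched to supplemented DMEM 24 h before assay, then treated with compound (10 μM) plus H2DCFDA (22 μM) for 2 h (PA, MMA lines) or 24 h (other lines). Kinetic fluorescence at 492/527 nm over 60 min; only live cells analysed.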

Read-outs that look alike come from different tables or passages of the source.

`CCC(=O)OCC(C)(C)[C@@H](O)C(=O)NCCC(=O)NCCSC(=O)CCC(=O)O` [Compound 157, 4-[(2-[3-[(2R)-2-hydroxy-3,3-dimethyl-4-(propanoyloxy)butanamido]propanamido]ethyl)sulfanyl]-4-oxobutanoic acid]: the activation at 10 µM in test [1] is at least 10%; in [7] (Homo sapiens, HUVEC, 24 h, 10 uM, read-out: % increase in sTNFα), at least 10%. Moreover, the inhibition at 10 µM in test [2] was at least 10%; in test [7] (Homo sapiens, HUVEC, 24 h, 10 uM, read-out: % decrease in IL-1α), at least 10%; in test [7] (Homo sapiens, HUVEC, 24 h, 10 uM, read-out: % decrease in TissueFactor), at least 10%. Besides, the activation at 50 µM in [3] was at least 20%; in [5] (assay condition C (10 mM glucose, 10% FBS), 50 μM, read-out: Increase in Maximal Respiratory Capacity AUC) it was at least 10%. Besides, in [4] (1 uM, procedure of Example 832), the “% decrease in Proliferation” value is at least 10%. Also, the “% decrease in HLA-DR” value in test [4] (10 uM) was at least 10%. Moreover, the activation at 1 µM in test [6] was at least 10%. The “% increase in Tissue Factor” value in test [7] (1 uM) is given as at least 10%. Besides, the “% increase in Proliferation” value in test [8] is recorded as at least 10%. Moreover, the inhibition at 1 µM in test [9] is at least 10%. Moreover, the “% decrease in MCP-1” value in test [10] is on record as at least 10%.

Turning to `CC(C)(CO)[C@@H](OC(=O)CN)C(=O)NCCC(=O)NCCSC(=O)CCC(=O)O` [Compound 1292, 4-[(2-[3-[(2R)-2-[(2-aminoacetyl)oxy]-4-hydroxy-3,3-dimethylbutanamido]propanamido]ethyl)sulfanyl]-4-oxobutanoic acid], the activation at 10 µM in [11] was at least 10%; in test [5] (assay condition D (1 mM glucose, 10% FBS), 10 μM, read-out: Increase in Spare Capacity AUC) it was at least 30%. The inhibition at 50 µM in test [12] is at least 10%. The inhibition at 10 µM in [13] (Fibroblast, KSS GM06225, read-out: Decreased ROS by at least 30%) is at least 30%; in [13] (Fibroblast, Leigh GM13411, read-out: Decreased ROS by at least 10%) it was at least 10%; in test [13] (FXN GM04078, read-out: Decreased ROS by at least 10%), at least 10%; in test [13] (FXN GM04078, read-out: Decreased ROS by at least 30%), at least 30%.

The record behind these values is patent US20230107216A1, “PANTETHEINE DERIVATIVES AND USES THEREOF” (Comet Therapeutics, Inc., priority 2018, published 2023).
